Experimental data taken from US7740882B2, “Enhanced oral and transcompartmental delivery of therapeutic or diagnostic agents” (priority 2001, dated 2010).
Values joined by “and” are separate entries in the source; they are usually repeats but may differ in a detail not shown here. Equal values may be shown once. “Also recorded” adds a separate entry of the source.

How the values were obtained:
rat small intestine = conditions: read-out: Km of biotin transport; literature; cited from earlier work
[1] = system: human intestinal brush-border membrane vesicles; conditions: read-out: Km of biotin transport; literature; cited from earlier work
SMVT = target: T1, SMVT (Homo sapiens, UniProt Q9Y289); assay: Inhibition of substrate uptake in CHO/hSMVT cells by 50 μM SMVT substrates; type: in vitro ADME; parameters: expressed in transfected cells; host or cells: CHO cells (ATCC), transient Lipofectamine transfection; plasmid was a gift of Dr. Puttur D. Prasad
T1 sequence (Q9Y289 1-635): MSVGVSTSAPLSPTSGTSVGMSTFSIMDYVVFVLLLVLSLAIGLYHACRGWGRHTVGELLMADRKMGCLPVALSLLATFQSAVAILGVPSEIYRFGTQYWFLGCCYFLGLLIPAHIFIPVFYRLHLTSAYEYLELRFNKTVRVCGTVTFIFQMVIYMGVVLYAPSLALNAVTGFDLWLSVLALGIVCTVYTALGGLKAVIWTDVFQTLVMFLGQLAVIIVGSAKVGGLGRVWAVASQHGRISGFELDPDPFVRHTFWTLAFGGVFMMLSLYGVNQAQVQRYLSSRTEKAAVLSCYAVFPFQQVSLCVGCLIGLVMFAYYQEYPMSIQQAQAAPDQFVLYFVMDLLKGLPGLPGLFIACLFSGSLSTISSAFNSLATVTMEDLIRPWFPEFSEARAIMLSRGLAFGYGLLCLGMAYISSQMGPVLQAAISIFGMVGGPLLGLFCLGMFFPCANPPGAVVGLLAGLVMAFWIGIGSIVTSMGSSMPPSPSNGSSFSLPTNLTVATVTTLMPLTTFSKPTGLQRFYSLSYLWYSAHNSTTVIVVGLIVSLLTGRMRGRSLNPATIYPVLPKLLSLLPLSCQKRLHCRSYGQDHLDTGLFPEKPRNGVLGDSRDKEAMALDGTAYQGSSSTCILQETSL

Caco-2 cell monolayers = assay: Absorptive (AP to BL) transport across Caco-2 cell monolayers; conditions: Caco-2 absorptive transport
Procedure: (§2) Caco-2 Cell Transport Studies An Ussing-type diffusion chamber system (Harvard Apparatus, Natick, Mass.) was used to perform transport studies. The apical solution was a MES Ringer's buffer (pH 6.5) consisting of 114.0 mM NaCl, 5.0 mM KCl, 1.1 mM MgSO4, 1.25 mM CaSO4, and 15 mM 2-(N-morpholino)ethanesulfonic acid (MES). The basolateral solution was a Ringer's buffer (pH 7.4) consisting of 114.0 mM NaCl, 5.0 mM KCl, 1.65 mM Na2HPO4, 0.3 mM NaH2PO4, 25 mM NaHCO3, 1.1 mM MgSO4, and 1.25 mM CaSO4. Both buffers contained 25 mM glucose and were adjusted to 290 mOsm/kg using a vapor pressure osmometer (Wescor Inc, Logan, Utah). For transport experiments using filters with cell monolayers, the inserts were rinsed with Ringer's buffet containing 25 mM glucose three times over a 20 min period at room temperature. The TEER was measured for each monolayer before it was mounted onto the diffusion chamber, which was pre-warmed to 37° C. by placement on the heating blocks. The volume of each half-chamber was 5 ml and the surface area of the Snapwell™ filters available for drug transport was 1 cm^2. […] The donor solution consisted of radiolabeled permeant in the apical buffer [apical (AP) to basolateral (BL) study]. Starting at 30 min, samples were taken from the receptor chamber every 15 min until the end of the experiment (105 min). A minimum of three monolayers was used to determine the permeability of test compound in each study and sample analysis was performed using scintillation counting (Perkin Elmer, Gaithersburg, Md.).
(§3) The Michaelis-Menten kinetic parameters of Caco-2 and CHO cell transport were then estimated using non-linear regression.
(§4) Prior to experimentation, diffusion chambers mounted with the Snapwells™ containing Caco-2 cells were equilibrated at 5° C., 10° C., 15° C., 25° C. and 37° C.
(§5) [formula] where Pe is the effective permeability of the substrate transported, Cs is the substrate concentration and Pm and Pc represent the passive and carrier-mediated component of the permeability. All data were initially fitted to a 3-parameter model (Pc, Pm, Km for Caco-2 studies, Jmax, Pm, Km for CHO studies).
(§6) Caco-2 Cell Transport Studies An Ussing-type diffusion chamber system (Harvard Apparatus, Natick, Mass.) was used to perform transport studies. The apical solution was a MES Ringer's buffer (pH 6.5) consisting of 114.0 mM NaCl, 5.0 mM KCl, 1.1 mM MgSO4, 1.25 mM CaSO4, and 15 mM 2-(N-morpholino)ethanesulfonic acid (MES). The basolateral solution was a Ringer's buffer (pH 7.4) consisting of 114.0 mM NaCl, 5.0 mM KCl, 1.65 mM Na2HPO4, 0.3 mM NaH2PO4, 25 mM NaHCO3, 1.1 mM MgSO4, and 1.25 mM CaSO4. Both buffers contained 25 mM glucose and were adjusted to 290 mOsm/kg using a vapor pressure osmometer (Wescor Inc, Logan, Utah). For transport experiments using filters with cell monolayers, the inserts were rinsed with Ringer's buffer containing 25 mM glucose three times over a 20 min period at room temperature. The TEER was measured for each monolayer before it was mounted onto the diffusion chamber, which was pre-warned to 37° C. by placement on the heating blocks.

in vitro = conditions: human, Caco-2
Procedure: as §2, §3, §4, §5, §6

[2] = target: T2, human sodium dependent multivitamin transporter, hSMVT (Homo sapiens, UniProt Q9Y289); assay: Uptake in CHO cells transiently transfected with hSMVT (CHO/hSMVT); conditions: for Pm, passive uptake component: CHO/hSMVT cellular uptake, (S.D), n = 3
T2 sequence (Q9Y289 1-635): T1 sequence (Q9Y289 1-635)
Procedure: (§1) CHO Cell Uptake Studies CHO cells transiently transfected with hSMVT (CHO/hSMVT) were washed twice with 25 mM uptake buffer, containing 25 mM Hepes/Tris pH 7.5, 140 mM NaCl, 5.4 mM KCl, 1.8 CaCl2, 0.8 mM MgSO4 and 5 mM glucose, approximately 48 hours post-transfection. Subsequently, the cells were incubated with the permeant at 37° C. for 10 minutes. Uptake was stopped by washing the cells thrice with ice-cold buffer. Non-specific uptake was measured in parallel experiments with the control pSPORT vector-transfected CHO cells. Finally, the cells were solubilized by 0.1% v/v Triton X-100, and 0.6 ml was used for scintillation counting. From the remaining volume, 10 μl of solution was taken from each well and protein concentration was determined using the Bio-Rad reagent according to the Bradford technique [M. Bradford, A rapid and sensitive method of quantitation of microgram quantities of protein utilizing the principle of protein-dye binding, Anal. Biochem. 72 (1976) 248]. Bovine serum albumin was used as the standard.
Parallel uptake experiments were performed using CHO/pSPORT control cells.
as §1, with “hSMVT” for “hSMVT (CHO/hSMVT)”, “glucose.” for “glucose, approximately 48 hours post-transfection.”, “Washing” for “Uptake was stopped by washing”, “three times” for “thrice”, “buffer stopped drug uptake.” for “buffer.”, “manufacturer's instructions.” for “Bradford technique [M. Bradford, A rapid and sensitive method of quantitation of microgram quantities of protein utilizing the principle of protein-dye binding, Anal. Biochem. 72 (1976) 248].”
as §1, with “Studies.” for “Studies”, “glucose.” for “glucose, approximately 48 hours post-transfection.”, “manufacturer's instructions.” for “Bradford technique [M. Bradford, A rapid and sensitive method of quantitation of microgram quantities of protein utilizing the principle of protein-dye binding, Anal. Biochem. 72 (1976) 248].”

CHO/pSPORT cells = assay: Non-specific uptake in vector-transfected control CHO/pSPORT cells
Procedure: as §1, with “From the remaining volume, 10 μl of solution was taken from each well and protein concentration was determined using the Bio-Rad reagent according to the Bradford technique [M. Bradford, A rapid and sensitive method of quantitation of microgram quantities of protein utilizing the principle of protein-dye binding, Anal. Biochem. 72 (1976) 248].” left out
CHO Cell Uptake Studies CHO cells transiently transfected with hSMVT were washed twice with 25 mM uptake buffer, containing 25 mM Hepes/Tris pH 7.5, 140 mM NaCl, 5.4 mM KCl, 1.8 CaCl2, 0.8 mM MgSO4 and 5 mM glucose. […] Non-specific uptake was measured in parallel experiments with the control pSPORT vector-transfected CHO cells. […] From the remaining volume, 10 μl of solution was taken from each well and protein concentration was determined using the Bio-Rad reagent according to the manufacturer's instructions. […]
CHO Cell Uptake Studies. […] Non-specific uptake was measured in parallel experiments with the control pSPORT vector-transfected CHO cells. […]

[3] = system: colonic epithelial NCM460 cells; conditions: read-out: Km of biotin transport; literature; cited from earlier work
[4] = system: bovine brain microvessel endothelial cells (BBMECs); assay: Transport (permeability) across BBMEC monolayers, in vitro BBB model; conditions: read-out: Km of transport and uptake; BBMECs
Procedure: Non-biotinylated PEGs were used in the control studies.
Isolation and culture of BBMECs. Bovine Brain Microvessel Endothelial Cells (BBMECs) were used as an in vitro model of BBB. BBMECs were isolated from bovine brain by a two-step enzymatic method and the cells were cultured on collagen coated Transwell™ plates or polystyrene plates in an atmosphere of 95% air and 5% CO2 at 37° C. Transendothelial electrical resistance (TEER) and several molecular markers were used to validate the integrity of the cell culture system.
The cells were cultured on 12-well Transwell™ filters for 7-8 days and transport was evaluated. […] All studies were performed at 37° C.

TAR RNA = conditions: unpublished results of the inventors

Row | Molecule | Km (rat small intestine) [µM] | Km [1] [µM] | inhibition of RI-K(biotin)-Tat9 uptake (SMVT; 0.1 μM RI-K(biotin)-Tat9, inhibitor 50 μM) | inhibition of biotin-PEG-3400 uptake (SMVT; 0.1 μM biotin-PEG-3400, inhibitor 50 μM) | inhibition of PEG:(RI-K(biotin)-Tat9)8 uptake (SMVT; 0.1 μM conjugate, inhibitor 50 μM) | Km (Caco-2 cell monolayers) [µM] | Papp at 105 min (in vitro) [×10⁻⁶ cm/s] | Pm, passive uptake component [2] | Jmax ([2]; uptake in CHO/hSMVT cells) | uptake in CHO/pSPORT cells (CHO/pSPORT cells) [pmol/mg protein/10 min] | Km [3] [µM] | Jmax without Pm component in the regression model ([2]; CHO/hSMVT) [pmol/mg protein/10 min] | uptake of substrate alone (control of inhibition study) ([2]; CHO/hSMVT, 0.1 μM, 10 min) [pmol/mg protein/10 min] | uptake, fold greater than RI-K-Tat9 ([2]; CHO/hSMVT, at 10 μM) [fold] | Km ([2]; uptake in CHO/hSMVT cells, 10 min, 37° C.) [µM] | Km [4] [µM] | TAR RNA binding activity (TAR RNA)
1 | O=C(O)CCCC[C@@H]1SC[C@@H]2NC(=O)N[C@@H]21 [Biotin, biotin] | 8.77 | 5.26 | significantly inhibited; also recorded: significantly lowered (p<0.001) | significantly (p<0.01) inhibited | significantly lower (p<0.05) | 11.3 | 3.35 | 3.50 (3.0) pmol/mg protein/10 min | 174.61±47.53 pmol/mg protein/10 min and 174.61 (47.53) pmol/mg protein/10 min | 23.73 | 19.7 |  |  |  |  |  | 
2 | N-acetyl-D-Lys:(ε-biotin)-D-Arg-D-Arg-D-Arg-D-Gln-D-Arg-D-Arg-D-Lys-D-Lys-D-Arg-NH2 [RI-K(biotin)-Tat9] |  |  |  |  |  | 3.27 |  | 32.90 (4.48) pmol/mg protein/10 min | 227.26±29.33 pmol/mg protein/10 min and 227.26 pmol/mg protein/10 min and 227.26 (29.33) pmol/mg protein/10 min |  |  | 675.95 | ~41.93 | ~500 | 1 ± 0.13 | ~40 | comparable TAR RNA binding activity to Tat9-K(biotin)
